# In patent publication US6369083B1, “2-methoxyimino-2 (pyrinyloxymethyl) phenyl acetamides with polyether derivatives on the pyridine ring” (Dow AgroSciences LLC, priority 1998, dated 2002):
# Experiments:
# Format in all cases: in vivo
# Erysiphe graminis = assay: Powdery Mildew of Wheat (ERYSGT); conditions: wheat (cultivar Monon), inoculated, sprayed at 25 ppm after 48 hours
# Procedure: Compound Formulation: […] Final treatment volumes were obtained by adding nine volumes 0.05kOO aqueous Tween-20 or Triton X-100, depending upon the pathogen. Powdery Mildew of Wheat (Erysiphe graminis-[…]): Wheat (cultivar Monon) was grown in a soilless peat-based potting mixture (Metromix) until the seedlings were 1-2 leaf (BBCH 12). These plants were then inoculated with Erysiphe graminis by dusting spores from stock plants onto the test plants. After 48 hours the plants were sprayed to run off with the test compound at a rate of 25 ppm and then kept in the greenhouse until disease developed on the untreated control plants. The following table presents the activity of typical compounds of the present invention when evaluated in these experiments. The effectiveness of the test compounds in controlling disease was rated using the following scale: […]
# Leptosphaeria nodorum = assay: Glume blotch of wheat (LEPTNO); conditions: wheat (cultivar Monon), sprayed at 100 ppm, inoculated after 24 hours
# Procedure: Compound Formulation: […] Final treatment volumes were obtained by adding nine volumes 0.05kOO aqueous Tween-20 or Triton X-100, depending upon the pathogen. Glume blotch of wheat (Leptosphaeria nodorum-[…]): Wheat (cultivar Monon) was grown from seed in a soilless peat-based potting mixture (Metromix) until the seedlings were 1-2 leaf (BBCH 12). These plants were then sprayed to run off with the test compound at a rate of 100 ppm. After 24 hours the test plants were inoculated with an aqueous spore suspension of Leptosphaeria nodorum. The plants were then transferred to the greenhouse until disease developed on the untreated control plants. Brown rust (Puccinia recondita-PUCCRT): Wheat (cultivar Monon) was grown from seed in a soilless peat-based potting mixture (Metromix) until the seedlings were 1-2 leaf (BBCH 12). These plants were then sprayed to run off with the test compound at a rate of 100 ppm. After 24 hours the test plants were inoculated with an aqueous spore suspension of Puccinia recondita. The plants were then transferred to the greenhouse until disease developed on the untreated control plants. The following table presents the activity of typical compounds of the present invention when evaluated in these experiments. The effectiveness of the test compounds in controlling disease was rated using the following scale: […]
# Plasmopara viticola = assay: Downy Mildew of Grape (PLASVI), 96 hour protectant; conditions: grape vines (cultivar Carignane), sprayed at 100 ppm, inoculated after 96 hours (protectant)
# Procedure: Compound Formulation: […] Final treatment volumes were obtained by adding nine volumes 0.05kOO aqueous Tween-20 or Triton X-100, depending upon the pathogen. Downy Mildew of Grape (Plasmogara viticola-[…]) (96 Hour Protectant): Vines (cultivar Carignane) were grown from seed in a soilless peat-based potting mixture (Metromix) until the seedlings were 10-20 cm tall. These plants were then sprayed to run off with the test compound at a rate of 100 ppm. After 96 hours the test plants were inoculated by spraying with an aqueous sporangia suspension of Plasmopara viticola. The plants were then transferred to the greenhouse until disease developed on the untreated control plants. The following table presents the activity of typical compounds of the present invention when evaluated in these experiments. The effectiveness of the test compounds in controlling disease was rated using the following scale: […]
Compound,ERYSGT control of plant disease (Erysiphe graminis),LEPTNO control of plant disease (Leptosphaeria nodorum),PLASVI control of plant disease (Plasmopara viticola)
CCOCCCOc1cccc(OCc2ccccc2C(=NOC)C(=O)NC)n1 [Compound 55],+ (+ = 25-74% control of plant disease),+ (+ = 25-74% control of plant disease),
CCCOCCCOc1cccc(OCc2ccccc2C(=NOC)C(=O)NC)n1 [Compound 89],+ (+ = 25-74% control of plant disease),− (− = 0-24% control of plant disease),− (− = 0-24% control of plant disease)
CCOCCOCCOc1nc(OCc2ccccc2C(=NOC)C(=O)NC)c(Cl)cc1Cl [Compound 16],++ (++ = 75-100 % control of plant disease),+ (+ = 25-74% control of plant disease),++ (++ = 75-100 % control of plant disease)
CNC(=O)C(=NOC)c1ccccc1COc1cccc(OCCOC(C)C)n1 [Compound 53],++ (++ = 75-100 % control of plant disease),− (− = 0-24% control of plant disease),++ (++ = 75-100 % control of plant disease)
CCOc1cccc2nc(Sc3cccc(OCc4ccccc4C(=NOC)C(=O)NC)n3)sc12 [Compound 13],− (− = 0-24% control of plant disease),+ (+ = 25-74% control of plant disease),+ (+ = 25-74% control of plant disease)
"CCOCCOc1nc(OCc2ccccc2C(=NOC)C(=O)NC)ccc1Cl [Compound 24, Benzeneacetamide, 2-[[[5-chloro-6-(2-ethoxyethoxy)-2-pyridinyl]oxy]methyl]-α-(methoxyimino)-N-methyl-]",++ (++ = 75-100 % control of plant disease),+ (+ = 25-74% control of plant disease),++ (++ = 75-100 % control of plant disease)
CNC(=O)C(=NOC)c1ccccc1COc1cccc(OCCCOC(C)C)n1 [Compound 54],++ (++ = 75-100 % control of plant disease),++ (++ = 75-100 % control of plant disease),++ (++ = 75-100 % control of plant disease)
"Benzeneacetamide, 2-[[[6-(2-(2-ethoxyethoxy)ethoxy) -2-pyridinyl]oxy]methyl]-α-(methoxyimino)-N-methyl- [Compound 21]",,+ (+ = 25-74% control of plant disease),++ (++ = 75-100 % control of plant disease)
CCOCCOc1cccc(OCc2ccccc2C(=NOC)C(=O)NC)n1 [Compound 17],+ (+ = 25-74% control of plant disease),++ (++ = 75-100 % control of plant disease),++ (++ = 75-100 % control of plant disease)
CNC(=O)C(=NOC)c1ccccc1COc1cccc(OC(COC)OC)n1 (stereo not shown) [Compound 22],++ (++ = 75-100 % control of plant disease),+ (+ = 25-74% control of plant disease),+ (+ = 25-74% control of plant disease)
CCOCCOc1nc(OCc2ccccc2C(=NOC)C(=O)NC)c(Cl)cc1Cl [Compound 18],+ (+ = 25-74% control of plant disease),++ (++ = 75-100 % control of plant disease),++ (++ = 75-100 % control of plant disease)
CNC(=O)C(=NOC)c1ccccc1COc1cccc(SCCSC(C)(C)C)n1 [Compound 52],++ (++ = 75-100 % control of plant disease),+ (+ = 25-74% control of plant disease),++ (++ = 75-100 % control of plant disease)
CCCOCCOCCOc1nc(OCc2ccccc2C(=NOC)C(=O)NC)c(Cl)cc1Cl [Compound 19],+ (+ = 25-74% control of plant disease),++ (++ = 75-100 % control of plant disease),+ (+ = 25-74% control of plant disease)
